Assay results as given in patent publication US8338624B2, “Isoflavone derivatives and uses thereof” (Yeda Research and Development Co., Ltd., priority 2007, dated 2012).

Tests used:
[1] = test system: T-47D breast cancer cell line; test: NCI In Vitro Cell Line Screening, T-47D; assay type: cell-based; conditions: Homo sapiens, T47D, read-out: log10 GI50 (converted)
Experimental: (§1) An in vitro cell line screen for the t-boc derivative of daidzein (compound 9) was performed at the NCI/NIH US utilizing the In Vitro Cell Line Screening Project (IVCLSP) (National Cancer Institute, Developmental Therapeutics Program, Information Technology Branch, Rockville, Md., USA).
(§2) The operation of this screen utilized 60 different human tumor cell lines, representing leukemia, melanoma and cancers of the lung, colon, brain, ovary, breast, prostate, and kidney. […] Using these algorithms, it is possible to assign a putative mechanism of action to a test compound, or to determine that the response pattern is unique and not similar to that of any of the standard prototype compounds included in the NCI database.
(§3) To facilitate analysis of the data, three endpoints were calculated for each cell line: The GI50 value, which is the negative log10 of the concentration required to inhibit the growth of that cell line by 50% (relative to untreated cells); TGI, the negative log10 of minimum concentration that causes total growth inhibition; and LC50, which reflects the negative log10 concentration needed to kill 50% of the cells. A Mean Graph was used as a way of easily visualizing the results from all 60 cell lines at once. To generate this graph, the mean of GI50 values across all 60 cell lines was calculated. […]

[2] = test system: MDA-MB-435 breast cancer cell line; test: NCI In Vitro Cell Line Screening, MDA-MB-435; assay type: cell-based; conditions: Homo sapiens, read-out: log10 GI50 (converted)
Experimental: as §1, §2, §3

[3] = test system: A2780 ovarian cancer cells; test: DNA synthesis by [3H]-thymidine incorporation, A2780 cells; assay type: cell-based, human; conditions: compound at 3 μM
Experimental: (§4) Cells were cultured in MEM supplemented with 10% FCS and antibiotics. Cells were grown to subconfluence and then treated with various hormones or agents as described by Somjen et al. (Somjen et al., 1998). The cells were characterized in terms of expression of mRNAs for estrogen […] by real time PCR, and the results are summarized in Table 1. N87, 320DM and H295R cells expressed mRNAs for both ERs. The ratio of ERα to ERβ was 1:8.5, 1:30 and 1:1.8 in N87, 320DM and H295R cells, respectively. Ovarian A2780 and prostate C4-24 cells expressed mainly mRNA for ERβ, and the ratio of ERβ to ERα was 300:1 and 70:1, respectively. MLS ovarian cells expressed mRNA only for ERβ. The ratio of ERα to ERβ in T47D cells has been reported to be 9:1.
(§5) [^3H]-Thymidine incorporation into DNA was used for the assessment of the various effects (proliferative or inhibitory) of various isoflavones, isoflavone derivatives and known cytotoxic drugs in the above-mentioned cells. Cells were grown until subconfluence using conditions described in Somjen et al. (Somjen et al., 1998) and then treated with various agents for 24 or 48 h as indicated. At the end of incubation, [^3H]-thymidine was added for two hours. Cells were then treated with 10% ice-cold trichloroacetic (TCA) for 5 min and washed twice with 5% TCA and then with cold ethanol. The cellular layer was dissolved in 0.3 ml of 0.3 M NaOH, aliquots were taken for counting radioactivity, and [^3H]-thymidine incorporation into DNA was calculated.

[4] = test system: SK-MEL-5 melanoma cell line; test: NCI In Vitro Cell Line Screening, SK-MEL-5; assay type: cell-based; conditions: Homo sapiens, read-out: log10 GI50 (converted)
Experimental: as §1, §2, §3

MLS ovarian xenografts = MLS ovarian xenografts in nude mice; assay type: in vivo; conditions: 9 iv 400 μg/mouse every other day
From the text: Female CD1 nude mice (8-week old, ˜30 g) were housed and handled with free access to food and water in the animal facility according to the guidelines (1996) of the Institutional Animal Care and Use Committee of the Weizmann Institute of Science, Rehovot, Israel.
Thirty female nude mice (8 weeks old) were inoculated sub-cutaneously (sc) with MLS ovarian carcinoma cells (1.5×10^6/mouse). Ten days later, when the tumors were palpable, the mice were randomly divided into 3 groups (8-10 mice/group). The mice in each group were iv injected every other day either with a vehicle (Neowater, a solubilization enhancer, 0.1 ml), daunomycin dissolved in Neowater (200 μg/mouse in 0.1 ml vehicle, total dose during treatment 1 mg/mouse), or compound 9 dissolved in Neowater (400 μg/mouse in 0.1 ml vehicle, total dose during treatment 2 mg/mouse). During treatment, body weight was recorded to monitor toxicity of the treatment, and the tumors were measured with an external caliper. Tumor volume was calculated using the formula length×width×height×π/6. Statistical significance was assessed using student's t test, and differences were considered significant at p<0.05.

K-562 leukemia cell line = test: NCI In Vitro Cell Line Screening, K-562; assay type: cell-based; conditions: Homo sapiens, K562, read-out: log10 GI50 (converted)
Experimental: as §1, §2, §3

[5] = test system: T47D mammary cancer cells; test: DNA synthesis by [3H]-thymidine incorporation, T47D cells; assay type: cell-based, human; conditions: Homo sapiens
Experimental: as §4, §5

[6] = test system: 320DM human colon cancer cells; test: DNA synthesis by [3H]-thymidine incorporation, 320DM cells; assay type: cell-based
Experimental: as §4
as §5, with “(Somjen et al., 1998) and then treated with various agents for 24 or 48 h as indicated.” left out

[7] = test system: H295R adrenocarcinoma cells; test: DNA synthesis by [3H]-thymidine incorporation, H295R cells; assay type: cell-based, human
Experimental: as §4, §5

[8] = test system: OVCAR-4 ovarian cancer cell line; test: NCI In Vitro Cell Line Screening, OVCAR-4; assay type: cell-based; conditions: Homo sapiens, read-out: log10 GI50 (converted)
Experimental: as §1, §2, §3

## CC(C)(C)OC(=O)NCCCCCCNC(=O)COc1ccc2c(=O)c(-c3ccc(O)cc3)coc2c1 [Compound 9]
[1]
  GI50: 1350 nM
[2]
  GI50: 1820 nM
[3]
  DNA synthesis, ratio experimental/control (E/C): 0.1 ± 0.15
[4]
  GI50: 631 nM
MLS ovarian xenografts
  weight reduction or death of treated mice: No weight reduction or death
MLS ovarian xenografts; listed as t-Boc daidzein derivative
  weight reduction or death of treated mice: did not cause death or weight loss
K-562 leukemia cell line
  GI50: 646 nM
[5]
  inhibition at 10 µM: 24 to 40%
[6]
  incubation time at which plateau of inhibition of DNA synthesis was reached: 72 h
[6]; 9 (0.3 μM) + E2 30 nM
  DNA synthesis, ratio experimental/control (E/C): 1.08 ± 0.16
[6]; 9 (0.3 μM) + E2 0.3 μM
  DNA synthesis, ratio experimental/control (E/C): 1.90 ± 0.05
[6]; 9 at 0.3 μM + Z-VADFK
  anti-proliferative effect in presence of apoptosis inhibitor: the anti-proliferative effect of 9 was not discernible
[6]; 9 at 0.3 μM + Z-VADFK (25 μM)
  DNA synthesis, ratio experimental/control (E/C): 1.18 ± 0.14
[6]; 9 at 0.3 μM + estradiol 300 nM
  suppression of the proliferative effect of estradiol: could not suppress its proliferative effect
[6]; 9 at 0.3 μM alone (Table 3)
  DNA synthesis, ratio experimental/control (E/C): 0.63 ± 0.11
[6]; 9 at 0.3 μM alone (Table 4)
  DNA synthesis, ratio experimental/control (E/C): 0.68 ± 0.14
[6]; 9 at 3 μM + Z-VADFK (25 μM)
  DNA synthesis, ratio experimental/control (E/C): 0.5 ± 0.11
[6]; 9 at 3 μM alone (Table 4)
  DNA synthesis, ratio experimental/control (E/C): 0.04 ± 0.22
[6]; 15 to 6000 nM
  effect on [3H]-thymidine incorporation into DNA: dose dependent decreases
[6]; Homo sapiens, 9 at 0.3 μM alone
  inhibition at 0.3 µM: 32%
[6]; Homo sapiens, 9 at 3 μM alone
  inhibition at 3 µM: ≤ 96%
[6]; compound at 3 μM
  DNA synthesis, ratio experimental/control (E/C): 0.08 ± 0.01
[6]; estradiol 30 nM + 0.3 μM compound 9
  DNA synthesis (% of control): 100%
[7]; Homo sapiens, NCI-H295R, at 3 μM, read-out: inhibition of DNA synthesis / growth
  inhibition at 3 µM: 92%
[7]; compound at 3 μM
  DNA synthesis, ratio experimental/control (E/C): 0.08 ± 0.21
[8]
  GI50: 407 nM
